Reference: PubChem BioAssay (NCI)
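Protocol summary: plate cells (96-well), add compound at 5 concentrations, incubate 48 h, interpolate endpoints linearly. TGI denotes the concentration required for complete inhibition of growth.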

What was measured:
Experiment in all cases: growth of human tumour cells (NCI), 48 h
SK-MEL-2 melanoma = test system: SK-MEL-2 melanoma
LOX IMVI melanoma = test system: LOX IMVI melanoma
M14 melanoma = test system: M14 melanoma
A498 renal = test system: A498 renal
K-562 leukemia = test system: K-562 leukemia
SK-MEL-5 melanoma = test system: SK-MEL-5 melanoma
OVCAR-8 ovarian = test system: OVCAR-8 ovarian
MDA-N = test system: MDA-N
CCRF-CEM leukemia = test system: CCRF-CEM leukemia
A549 NSCLC = test system: A549 NSCLC
NCI-H226 lung = test system: NCI-H226 lung
SF-268 CNS = test system: SF-268 CNS
OVCAR-3 ovarian = test system: OVCAR-3 ovarian
PC-3 prostate = test system: PC-3 prostate
RXF 393 renal = test system: RXF 393 renal
SNB-75 CNS = test system: SNB-75 CNS
U251 CNS = test system: U251 CNS
HOP-92 NSCLC = test system: HOP-92 NSCLC
SN12C renal = test system: SN12C renal
HS 578T breast = test system: HS 578T breast
HOP-62 NSCLC = test system: HOP-62 NSCLC
HCC-2998 colon = test system: HCC-2998 colon
HL-60(TB) leukemia = test system: HL-60(TB) leukemia
CAKI-1 renal = test system: CAKI-1 renal
EKVX NSCLC = test system: EKVX NSCLC
NCI/ADR-RES ovarian = test system: NCI/ADR-RES ovarian
SF-539 CNS = test system: SF-539 CNS
SF-295 CNS = test system: SF-295 CNS
T-47D breast = test system: T-47D breast
SR leukemia = test system: SR leukemia
DU-145 prostate = test system: DU-145 prostate
SK-OV-3 ovarian = test system: SK-OV-3 ovarian
IGROV1 ovarian = test system: IGROV1 ovarian
HCT-15 colon = test system: HCT-15 colon
MOLT-4 leukemia = test system: MOLT-4 leukemia
HCT-116 colon = test system: HCT-116 colon
MCF7 breast = test system: MCF7 breast
MDA-MB-231 breast = test system: MDA-MB-231 breast
COLO 205 colon = test system: COLO 205 colon
OVCAR-4 ovarian = test system: OVCAR-4 ovarian
OVCAR-5 ovarian = test system: OVCAR-5 ovarian
SK-MEL-28 melanoma = test system: SK-MEL-28 melanoma
MDA-MB-435 = test system: MDA-MB-435
SW-620 colon = test system: SW-620 colon
HT29 colon = test system: HT29 colon
MALME-3M melanoma = test system: MALME-3M melanoma
UACC-62 melanoma = test system: UACC-62 melanoma
UO-31 renal = test system: UO-31 renal
786-0 renal = test system: 786-0 renal
RPMI-8226 leukemia = test system: RPMI-8226 leukemia
KM12 colon = test system: KM12 colon
NCI-H460 lung = test system: NCI-H460 lung
NCI-H23 lung = test system: NCI-H23 lung
TK-10 renal = test system: TK-10 renal
ACHN renal = test system: ACHN renal
NCI-H522 lung = test system: NCI-H522 lung
SNB-19 CNS = test system: SNB-19 CNS
BT-549 breast = test system: BT-549 breast
UACC-257 melanoma = test system: UACC-257 melanoma

Measured: TGI

CCSc1ncnc2c(C3OC(CO)C(O)C3O)nsc12 (centres undefined)
> 100 µM: SK-MEL-2 melanoma | LOX IMVI melanoma | M14 melanoma | A498 renal | K-562 leukemia | SK-MEL-5 melanoma | OVCAR-8 ovarian | MDA-N | CCRF-CEM leukemia | A549 NSCLC | NCI-H226 lung | SF-268 CNS | OVCAR-3 ovarian | PC-3 prostate | RXF 393 renal | SNB-75 CNS | U251 CNS | HOP-92 NSCLC | SN12C renal | HS 578T breast | HOP-62 NSCLC | HCC-2998 colon | HL-60(TB) leukemia | CAKI-1 renal | EKVX NSCLC | NCI/ADR-RES ovarian | SF-539 CNS | SF-295 CNS | T-47D breast | SR leukemia | DU-145 prostate | SK-OV-3 ovarian | IGROV1 ovarian | HCT-15 colon | MOLT-4 leukemia | HCT-116 colon | MCF7 breast | MDA-MB-231 breast | COLO 205 colon | OVCAR-4 ovarian | OVCAR-5 ovarian | SK-MEL-28 melanoma | MDA-MB-435 | SW-620 colon | HT29 colon | MALME-3M melanoma

c1ccc2c(c1)c1c(n2CCOCCN2CCCCC2)CCCC1
28.4 µM: OVCAR-8 ovarian
24.4 µM: MDA-MB-231 breast
22.2 µM: PC-3 prostate
27.4 µM: SN12C renal
32.1 µM: HS 578T breast
38.5 µM: NCI-H226 lung
37.7 µM: SF-268 CNS
23.4 µM: NCI/ADR-RES ovarian
27.6 µM: MCF7 breast
34.9 µM: SK-OV-3 ovarian
31.7 µM: SF-539 CNS
25.7 µM: M14 melanoma | OVCAR-5 ovarian
25.3 µM: OVCAR-4 ovarian
35.7 µM: SW-620 colon
29.7 µM: SF-295 CNS
28.7 µM: UACC-62 melanoma | MDA-N
28.3 µM: LOX IMVI melanoma
26.6 µM: MDA-MB-435
26 µM: COLO 205 colon
36 µM: SR leukemia
26.7 µM: K-562 leukemia | SNB-75 CNS | KM12 colon | MOLT-4 leukemia | MALME-3M melanoma
32.6 µM: DU-145 prostate
37.4 µM: NCI-H23 lung
58 µM: SK-MEL-28 melanoma
30.1 µM: A549 NSCLC
32.8 µM: EKVX NSCLC
22.3 µM: HOP-92 NSCLC
25 µM: HCT-116 colon
21.1 µM: SK-MEL-2 melanoma | SK-MEL-5 melanoma
29 µM: HOP-62 NSCLC
24.6 µM: UO-31 renal | HT29 colon
8.33 µM: HL-60(TB) leukemia
26.4 µM: 786-0 renal
32.7 µM: U251 CNS
28 µM: RPMI-8226 leukemia
27.7 µM: HCT-15 colon | ACHN renal
21.7 µM: OVCAR-3 ovarian
35.2 µM: T-47D breast
28.2 µM: NCI-H460 lung
23.6 µM: HCC-2998 colon
29.6 µM: CCRF-CEM leukemia
28.1 µM: IGROV1 ovarian
27.3 µM: TK-10 renal

CSC1=Nc2ccccc2-c2nc(-c3ccccc3)cc(-c3ccccc3)c2C1
41.8 µM: ACHN renal
64.2 µM: SF-295 CNS
> 100 µM: LOX IMVI melanoma | A498 renal | K-562 leukemia | SNB-19 CNS | OVCAR-8 ovarian | MDA-N | CCRF-CEM leukemia | BT-549 breast | A549 NSCLC | NCI-H226 lung | PC-3 prostate | UACC-257 melanoma | SN12C renal | RPMI-8226 leukemia | HOP-62 NSCLC | HCC-2998 colon | HL-60(TB) leukemia | EKVX NSCLC | NCI/ADR-RES ovarian | SF-539 CNS | KM12 colon | NCI-H460 lung | SR leukemia | DU-145 prostate | HCT-15 colon | MOLT-4 leukemia | COLO 205 colon | OVCAR-4 ovarian | OVCAR-5 ovarian | SK-MEL-28 melanoma | MDA-MB-435 | SW-620 colon | HT29 colon
33.5 µM: NCI-H23 lung
26 µM: 786-0 renal
40.1 µM: NCI-H522 lung
30.7 µM: HCT-116 colon
30 µM: CAKI-1 renal
30.6 µM: SK-OV-3 ovarian
16.8 µM: SNB-75 CNS
36.8 µM: TK-10 renal
45 µM: RXF 393 renal
41.6 µM: MDA-MB-231 breast
76.4 µM: T-47D breast
60.5 µM: UACC-62 melanoma
32.1 µM: IGROV1 ovarian
44.4 µM: U251 CNS
76.6 µM: UO-31 renal
37.1 µM: M14 melanoma
75.1 µM: SK-MEL-5 melanoma

CCOC(=O)c1c(SC(=O)c2cc(OC)c(OC)c(OC)c2)n(-c2ccccc2)c(=S)n(-c2ccccc2)c1=O
> 100 µM: LOX IMVI melanoma | M14 melanoma | A498 renal | NCI-H522 lung | UACC-62 melanoma | K-562 leukemia | SNB-19 CNS | OVCAR-8 ovarian | MDA-N | CCRF-CEM leukemia | 786-0 renal | A549 NSCLC | NCI-H226 lung | SF-268 CNS | OVCAR-3 ovarian | PC-3 prostate | RXF 393 renal | SNB-75 CNS | U251 CNS | HOP-92 NSCLC | UACC-257 melanoma | SN12C renal | HS 578T breast | HOP-62 NSCLC | HCC-2998 colon | HL-60(TB) leukemia | CAKI-1 renal | EKVX NSCLC | NCI/ADR-RES ovarian | SF-539 CNS | KM12 colon | NCI-H460 lung | SF-295 CNS | T-47D breast | SR leukemia | NCI-H23 lung | TK-10 renal | DU-145 prostate | SK-OV-3 ovarian | IGROV1 ovarian | HCT-15 colon | MOLT-4 leukemia | HCT-116 colon | MCF7 breast | MDA-MB-231 breast | COLO 205 colon | OVCAR-4 ovarian | OVCAR-5 ovarian | SK-MEL-28 melanoma | MDA-MB-435 | SW-620 colon | HT29 colon | MALME-3M melanoma | ACHN renal
